Results published in PubChem BioAssay (NCI).
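Compound exposure: 48 hours, 5 concentrations, 96-well plates. TGI denotes the concentration required for complete inhibition of growth.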

How the values were obtained:
Assay in all cases: inhibition of tumour cell growth, NCI panel, 48 h
[1] = test system: SF-295 CNS
[2] = test system: CAKI-1 renal
[3] = test system: NCI-H226 lung
[4] = test system: HL-60(TB) leukemia
[5] = test system: T-47D breast
[6] = test system: COLO 205 colon
[7] = test system: K-562 leukemia
[8] = test system: HS 578T breast
[9] = test system: MALME-3M melanoma
[10] = test system: MDA-MB-231 breast
[11] = test system: NCI-H23 lung
[12] = test system: EKVX NSCLC
[13] = test system: A549 NSCLC
[14] = test system: MCF7 breast
[15] = test system: M14 melanoma
[16] = test system: CCRF-CEM leukemia
[17] = test system: SF-268 CNS
[18] = test system: MDA-MB-435
[19] = test system: HOP-62 NSCLC
[20] = test system: IGROV1 ovarian
[21] = test system: HCT-116 colon
[22] = test system: KM12 colon
[23] = test system: MOLT-4 leukemia
[24] = test system: A498 renal
[25] = test system: OVCAR-3 ovarian
[26] = test system: SNB-19 CNS
[27] = test system: SK-OV-3 ovarian
[28] = test system: RPMI-8226 leukemia
[29] = test system: OVCAR-8 ovarian
[30] = test system: TK-10 renal
[31] = test system: SN12C renal
[32] = test system: HOP-92 NSCLC
[33] = test system: OVCAR-4 ovarian
[34] = test system: SK-MEL-28 melanoma
[35] = test system: DU-145 prostate
[36] = test system: UO-31 renal
[37] = test system: SF-539 CNS
[38] = test system: NCI/ADR-RES ovarian
[39] = test system: SK-MEL-2 melanoma
[40] = test system: SNB-75 CNS
[41] = test system: HCC-2998 colon
[42] = test system: PC-3 prostate
[43] = test system: OVCAR-5 ovarian
[44] = test system: ACHN renal
[45] = test system: SW-620 colon
[46] = test system: RXF 393 renal
[47] = test system: SK-MEL-5 melanoma
[48] = test system: 786-0 renal
[49] = test system: U251 CNS
[50] = test system: UACC-257 melanoma
[51] = test system: NCI-H522 lung
[52] = test system: LOX IMVI melanoma
[53] = test system: MDA-N
[54] = test system: HCT-15 colon
[55] = test system: HT29 colon
[56] = test system: NCI-H460 lung
[57] = test system: UACC-62 melanoma
[58] = test system: SR leukemia

CCCCCCCCCC(O)CC(=O)c1c(O)cccc1O (centres undefined)
TGI [1]: 39.1 µM | TGI [2]: 44 µM | TGI [3]: 34.9 µM | TGI [4]: 57.3 µM | TGI [5]: 71.5 µM | TGI [6]: 91.7 µM | TGI [7]: 49.5 µM | TGI [8]: 40.8 µM | TGI [9]: 32.3 µM | TGI [10]: 46.5 µM | TGI [11]: 43.7 µM | TGI [12]: 45.5 µM | TGI [13]: 55.1 µM | TGI [14]: 50.3 µM | TGI [15]: 44.2 µM | TGI [16]: > 100 µM | TGI [17]: 35.9 µM | TGI [18]: 68.1 µM | TGI [19]: 33.1 µM | TGI [20]: 36.8 µM | TGI [21]: 56.7 µM | TGI [22]: 40.8 µM | TGI [23]: 41.6 µM | TGI [24]: 88.5 µM | TGI [25]: 41.9 µM | TGI [26]: 73 µM | TGI [27]: 41.3 µM | TGI [28]: 45.2 µM | TGI [29]: 38.6 µM | TGI [30]: 45.7 µM | TGI [31]: 63.9 µM | TGI [32]: 64.8 µM | TGI [33]: 35.2 µM | TGI [34]: > 100 µM | TGI [35]: > 100 µM | TGI [36]: 38.6 µM | TGI [37]: 40.7 µM | TGI [38]: 38.5 µM | TGI [39]: 35.7 µM | TGI [40]: 34.9 µM | TGI [41]: 26.8 µM | TGI [42]: 36.4 µM | TGI [43]: 35.7 µM | TGI [44]: 53.7 µM | TGI [45]: > 100 µM | TGI [46]: 34.8 µM | TGI [47]: 38 µM | TGI [48]: 50.4 µM | TGI [49]: > 100 µM | TGI [50]: 38.7 µM | TGI [51]: 37.9 µM | TGI [52]: 46 µM | TGI [53]: 51.6 µM | TGI [54]: 39.4 µM | TGI [55]: 43 µM

O=c1c(Nc2ccccc2)cn(CCOc2ccc(Cl)cc2)c(=O)n1CCOc1ccc(Cl)cc1
TGI [1]: > 100 µM | TGI [56]: > 100 µM | TGI [2]: > 100 µM | TGI [6]: > 100 µM | TGI [7]: > 100 µM | TGI [8]: > 100 µM | TGI [11]: > 100 µM | TGI [12]: > 100 µM | TGI [13]: > 100 µM | TGI [15]: > 100 µM | TGI [16]: > 100 µM | TGI [17]: > 100 µM | TGI [18]: > 100 µM | TGI [20]: > 100 µM | TGI [21]: > 100 µM | TGI [22]: > 100 µM | TGI [23]: > 100 µM | TGI [24]: > 100 µM | TGI [26]: > 100 µM | TGI [28]: > 100 µM | TGI [31]: > 100 µM | TGI [33]: > 100 µM | TGI [34]: > 100 µM | TGI [35]: > 100 µM | TGI [36]: > 100 µM | TGI [57]: > 100 µM | TGI [58]: > 100 µM | TGI [41]: > 100 µM | TGI [42]: > 100 µM | TGI [44]: > 100 µM | TGI [45]: > 100 µM | TGI [46]: > 100 µM | TGI [47]: > 100 µM | TGI [48]: > 100 µM | TGI [49]: > 100 µM | TGI [50]: > 100 µM | TGI [52]: > 100 µM | TGI [53]: > 100 µM | TGI [54]: > 100 µM
